# Where two headings read alike, the source gives them in different places.
# How the values were obtained:
# [1] = molecular target: human orexin 2 receptor (Homo sapiens (Human), UniProt O43614); assay: Human orexin 2 receptor radioligand binding; conditions: human orexin 2 receptor; averages of 2-20 runs; read-out: hOX2 Ki
# Experimental: (§1) Data are analyzed using pc-Sandy macro and graphed on Graphpad Prism 5. For analysis, each concentration point is averaged from triplicate values and the averaged values are plotted on Graphpad Prism. The IC50 was determined by applying the following equation (GraphPad Prism 5.0, SanDiego) for one site competition where X=log (concentration) and Y=specific binding. Top denotes the total [^3H]-(1-(5-(2-fluoro-phenyl)-2-methyl-thiazol-4-yl)-1-((S)-2-(5-phenyl-(1,3,4)oxadiazol-2-ylmethyl)-pyrrolidin-1-yl)-methanone) binding, bottom denotes the nonspecific [^3H]-(1-(5-(2-fluoro-phenyl)-2-methyl-thiazol-4-yl)-1-((S)-2-(5-phenyl-(1,3,4)oxadiazol-2-ylmethyl)-pyrrolidin-1-yl)-methanone) binding. Graphpad Prism calculates Ki value from IC50 and the pre-determined Kd values for [^3H]-(1-(5-(2-fluoro-phenyl)-2-methyl-thiazol-4-yl)-1-((S)-2-(5-phenyl-(1,3,4)oxadiazol-2-ylmethyl)-pyrrolidin-1-yl)-methanone) and [3H]-EMPA. The Ki for each compound is then uploaded into 3DX. Each run comprises individual compounds in triplicate. The data in Table 1 and Table 2 represent averages from between 2-20 runs
# Human Orexin 2 Receptor Radioligand Binding Studies
# HEK293 stably expressing human orexin 2 receptor (Genebank accession number NM_001526) were grown to confluency in DMEM (Hyclone, cat # SH30022), 10% FBS, 1× Pen/Strep, 1× NaPyruvate, 10 mM HEPES, 600 ug/ml G418 media on 150 cm^2 tissue culture plates, washed with 5 mM EDTA in PBS (HyClone Dulbecco's Phosphate Buffered Saline 1× with Calcium and Magnesium, Cat # SH30264.01, hereafter referred to simply as PBS) and scraped into 50 ml tubes. After centrifugation (2K×G, 5 min at 4° C.), the supernatant was aspirated and the pellets frozen and stored at −80° C. […] Each cell pellet from a 15 cm plate was resuspended in 10 mL, stored on ice, and homogenized for 45 sec just prior to addition to the reactions. […] The final concentration of DMSO in the reactions is equal to or less than 0.1%. Total and nonspecific binding was determined in the absence and presence of 10 μM almorexant. The total volume of each reaction is 200 μL (20 μL of diluted compounds, 80 μL of [^3H]-EMPA diluted in PBS and 100 μL of the cell suspension). […] The plates were washed 3 times by aspirating 30 ml PBS through the plates. Plates were dried in 55° C. oven for 60 min, scintillation fluid was added, and the radioactivity was counted on a Topcount (Packard).
# [2] = molecular target: rat orexin 1 receptor (Rattus norvegicus, UniProt P56718); assay: Rat orexin 1 receptor radioligand binding
# Experimental: as §1
# Rat and Human Orexin 1 Receptor Radioligand Binding Studies
# After centrifugation (2K×G, 5 min at 4° C.), the supernatant was aspirated and the pellets frozen and stored at −80° C. […] Each cell pellet from a 15 cm plate was resuspended in 10 mL, stored on ice, and homogenized for 45 sec prior to addition to the reactions. […] The final concentration of DMSO in the reactions is equal to or less than 0.1%. Total and nonspecific binding was determined in the absence and presence of 10 μM almorexant. The total volume of each reaction is 200 μL (20 μL of diluted compounds, 80 μL of [^3H]-(1-(5-(2-fluoro-phenyl)-2-methyl-thiazol-4-yl)-1-((S)-2-(5-phenyl-(1,3,4)oxadiazol-2-ylmethyl)-pyrrolidin-1-yl)-methanone) diluted in PBS and 100 μL of the cell suspension). […] The plates were washed 3 times by aspirating 30 ml PBS through the plates. Plates were dried in 55° C. oven for 60 min, scintillation fluid was added, and the radioactivity was counted on a Topcount (Packard).
# [3] = rat orexin 1 receptor, averages of 2-20 runs, read-out: rOX1 Ki
# human orexin 2 receptor, sequence (O43614 whole entry): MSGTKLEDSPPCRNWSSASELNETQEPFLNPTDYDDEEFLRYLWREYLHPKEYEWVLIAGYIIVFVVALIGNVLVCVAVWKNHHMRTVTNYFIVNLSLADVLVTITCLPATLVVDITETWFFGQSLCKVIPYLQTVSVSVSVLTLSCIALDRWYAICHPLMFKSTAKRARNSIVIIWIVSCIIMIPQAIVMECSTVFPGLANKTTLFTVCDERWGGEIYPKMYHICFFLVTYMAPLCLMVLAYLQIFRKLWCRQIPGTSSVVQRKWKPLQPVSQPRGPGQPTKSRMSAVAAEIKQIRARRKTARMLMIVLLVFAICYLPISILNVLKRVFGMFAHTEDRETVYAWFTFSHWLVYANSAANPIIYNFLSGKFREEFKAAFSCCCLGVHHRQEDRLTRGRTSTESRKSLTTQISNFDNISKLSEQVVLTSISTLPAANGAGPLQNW
SMILES,Ki [1],"Ki [2, 3]",Ki [2]
"Cc1nc2sccn2c1C(=O)N1CC2CC(Oc3ccc(C(F)(F)F)cn3)C1C2 (racemic) [Example 6, (R/S)-(6-methylimidazo[2,1-b]thiazol-5-yl)(6-((5-(trifluoromethyl)pyridin-2-yl)oxy)-2-azabicyclo[2.2.1]heptan-2-yl)methanone]",> 10000 nM,> 10000 nM,
"O=C(c1cccc(F)c1-n1nccn1)N1CC2CCC1C(Oc1ccc(C(F)(F)F)cn1)C2 (racemic) [Example 249, (R/S)-(3-fluoro-2-(2H-1,2,3-triazol-2-yl)phenyl)(6-((5-(trifluoromethyl)pyridin-2-yl)oxy)-2-azabicyclo[2.2.2]octan-2-yl)methanone]",758 nM,,
"O=C(c1ccccc1-n1nccn1)N1CC2CCC1C(Nc1cnc(C(F)(F)F)cn1)C2 (racemic) [Example 254, (R/S)-(2-(2H-1,2,3-triazol-2-yl)phenyl)(6-((5-(trifluoromethyl)pyrazin-2-yl)amino)-2-azabicyclo[2.2.2]octan-2-yl)methanone]",307 nM,,12 nM
"O=C(c1cccc(F)c1-n1nccn1)N1CC2CCC1C(Nc1cnc(C(F)(F)F)cn1)C2 (racemic) [Example 255, (R/S)-(3-fluoro-2-(2H-1,2,3-triazol-2-yl)phenyl)(6-((5-(trifluoromethyl)pyrazin-2-yl)amino)-2-azabicyclo[2.2.2]octan-2-yl)methanone]",1000 nM,,
"O=C(c1c(F)cccc1-c1ncccn1)N1C[C@H]2C[C@@H](Oc3ccc(C(F)(F)F)cn3)[C@@H]1C2 [Example 38, (2-fluoro-6-(pyrimidin-2-yl)phenyl)((1S,4R,6R)-6-((5-(trifluoromethyl)pyridin-2-yl)oxy)-2-azabicyclo[2.2.1]heptan-2-yl)methanone]",633 nM,,
"COc1cccc(-c2ccn[nH]2)c1C(=O)N1C[C@H]2C[C@@H](Oc3ccc(C(F)(F)F)cn3)[C@@H]1C2 [Example 39, (2-methoxy-6-(1H-pyrazol-5-yl)phenyl)((1S,4R,6R)-6-((5-(trifluoromethyl)pyridin-2-yl)oxy)-2-azabicyclo[2.2.1]heptan-2-yl)methanone]",,72 nM,
"COc1cccc(-c2ncccn2)c1C(=O)N1C[C@H]2C[C@@H](Oc3ccc(C(F)(F)F)cn3)[C@@H]1C2 [Example 40, (2-methoxy-6-(pyrimidin-2-yl)phenyl)((1S,4R,6R)-6-((5-(trifluoromethyl)pyridin-2-yl)oxy)-2-azabicyclo[2.2.1]heptan-2-yl)methanone]",,15 nM,
"O=C(c1cc(F)ccc1-n1nccn1)N1C[C@H]2C[C@@H](Nc3ccc(C(F)(F)F)cn3)[C@@H]1C2 [Example 57, (5-fluoro-2-(2H-1,2,3-triazol-2-yl)phenyl)((1S,4S,6R)-6-((5-(trifluoromethyl)pyridin-2-yl)amino)-2-azabicyclo[2.2.1]heptan-2-yl)methanone]",225 nM,5 nM,
"O=C(c1cccc(F)c1-c1ncccn1)N1C[C@H]2C[C@@H](Oc3ncccc3C(F)(F)F)[C@@H]1C2 [Example 96, (3-fluoro-2-(pyrimidin-2-yl)phenyl)((1S,4R,6R)-6-((3-(trifluoromethyl)pyridin-2-yl)oxy)-2-azabicyclo[2.2.1]heptan-2-yl)methanone]",1700 nM,320 nM,
"O=C(c1ccccc1-n1nccn1)N1C[C@H]2C[C@@H](Oc3ccccn3)[C@@H]1C2 [Example 102, (2-(2H-1,2,3-triazol-2-yl)phenyl)((1S,4R,6R)-6-(pyridin-2-yloxy)-2-azabicyclo[2.2.1]heptan-2-yl)methanone]",1600 nM,404 nM,
"Cc1ccc(C(=O)N2C[C@H]3C[C@@H](Oc4ccccn4)[C@@H]2C3)c(-n2nccn2)n1 [Example 103, (6-methyl-2-(2H-1,2,3-triazol-2-yl)pyridin-3-yl)((1S,4R,6R)-6-(pyridin-2-yloxy)-2-azabicyclo[2.2.1]heptan-2-yl)methanone]",> 10000 nM,> 10000 nM,
"O=C(c1cccc(F)c1-c1ncccn1)N1C[C@H]2C[C@@H](Oc3ccccn3)[C@@H]1C2 [Example 104, (3-fluoro-2-(pyrimidin-2-yl)phenyl)((1S,4R,6R)-6-(pyridin-2-yloxy)-2-azabicyclo[2.2.1]heptan-2-yl)methanone]",5000 nM,497 nM,
"Cc1ccc(-n2nccn2)c(C(=O)N2C[C@H]3C[C@@H](Oc4ccc(F)cn4)[C@@H]2C3)n1 [Example 119, ((1S,4R,6R)-6-((5-fluoropyridin-2-yl)oxy)-2-azabicyclo[2.2.1]heptan-2-yl)(6-methyl-3-(2H-1,2,3-triazol-2-yl)pyridin-2-yl)methanone]",3600 nM,262 nM,
"Cc1cnc(O[C@@H]2C[C@H]3C[C@@H]2N(C(=O)c2nc(C)ccc2-n2nccn2)C3)nc1 [Example 132, (6-methyl-3-(2H-1,2,3-triazol-2-yl)pyridin-2-yl)((1S,4R,6R)-6-((5-methylpyrimidin-2-yl)oxy)-2-azabicyclo[2.2.1]heptan-2-yl)methanone]",6800 nM,425 nM,
"Cc1cnc(O[C@@H]2C[C@H]3C[C@@H]2N(C(=O)c2ncc(C)cc2-c2ncccn2)C3)nc1 [Example 134, (5-methyl-3-(pyrimidin-2-yl)pyridin-2-yl)((1S,4R,6R)-6-((5-methylpyrimidin-2-yl)oxy)-2-azabicyclo[2.2.1]heptan-2-yl)methanone]",> 10000 nM,668 nM,
"CCc1cnc(O[C@@H]2C[C@H]3C[C@@H]2N(C(=O)c2nc(C)ccc2-n2nccn2)C3)nc1 [Example 136, ((1S,4R,6R)-6-((5-ethylpyrimidin-2-yl)oxy)-2-azabicyclo[2.2.1]heptan-2-yl)(6-methyl-3-(2H-1,2,3-triazol-2-yl)pyridin-2-yl)methanone]",4700 nM,380 nM,
"CCc1cnc(O[C@@H]2C[C@H]3C[C@@H]2N(C(=O)c2nc(C)ccc2-c2ncccn2)C3)nc1 [Example 138, ((1S,4R,6R)-6-((5-ethylpyrimidin-2-yl)oxy)-2-azabicyclo[2.2.1]heptan-2-yl)(6-methyl-3-(pyrimidin-2-yl)pyridin-2-yl)methanone]",2700 nM,300 nM,
"Cc1ccc(-n2nccn2)c(C(=O)N2C[C@H]3C[C@@H](Oc4ccc(C(F)(F)F)nn4)[C@@H]2C3)n1 [Example 140, (6-methyl-3-(2H-1,2,3-triazol-2-yl)pyridin-2-yl)((1S,4R,6R)-6-((6-(trifluoromethyl)pyridazin-3-yl)oxy)-2-azabicyclo[2.2.1]heptan-2-yl)methanone]",7700 nM,330 nM,
"Cc1ccc(-c2ncccn2)c(C(=O)N2C[C@H]3C[C@@H](Oc4ccc(C(F)(F)F)nn4)[C@@H]2C3)n1 [Example 142, (6-methyl-3-(pyrimidin-2-yl)pyridin-2-yl)((1S,4R,6R)-6-((6-(trifluoromethyl)pyridazin-3-yl)oxy)-2-azabicyclo[2.2.1]heptan-2-yl)methanone]",7900 nM,376 nM,
"O=C(c1cccc(F)c1-n1nccn1)N1C[C@@H]2CC[C@H]1[C@H](Nc1cnc(C(F)(F)F)cn1)C2 [Example 274, (3-fluoro-2-(2H-1,2,3-triazol-2-yl)phenyl)((1S,4R,6R)-6-((5-(trifluoromethyl)pyrazin-2-yl)amino)-2-azabicyclo[2.2.2]octan-2-yl)methanone]",534 nM,,
"COc1cccc(-n2nccn2)c1C(=O)N1C[C@H]2C[C@@H](Oc3ccc(C(F)(F)F)cn3)[C@@H]1C2 [Example 289, (2-methoxy-6-(2H-1,2,3-triazol-2-yl)phenyl)((1S,4R,6R)-6-((5-(trifluoromethyl)pyridin-2-yl)oxy)-2-azabicyclo[2.2.1]heptan-2-yl)methanone]",207 nM,,
